In ChEMBL document CHEMBL5291721, “A preclinical secondary pharmacology resource illuminates target-adverse drug reaction associations of marketed drugs” (Nat Commun, 2023):

Columns and labels:
[1] = target: T1, Retinoic acid receptor beta (Homo sapiens, UniProt P10826); type: functional, cell-based
T1 sequence (P10826 whole entry): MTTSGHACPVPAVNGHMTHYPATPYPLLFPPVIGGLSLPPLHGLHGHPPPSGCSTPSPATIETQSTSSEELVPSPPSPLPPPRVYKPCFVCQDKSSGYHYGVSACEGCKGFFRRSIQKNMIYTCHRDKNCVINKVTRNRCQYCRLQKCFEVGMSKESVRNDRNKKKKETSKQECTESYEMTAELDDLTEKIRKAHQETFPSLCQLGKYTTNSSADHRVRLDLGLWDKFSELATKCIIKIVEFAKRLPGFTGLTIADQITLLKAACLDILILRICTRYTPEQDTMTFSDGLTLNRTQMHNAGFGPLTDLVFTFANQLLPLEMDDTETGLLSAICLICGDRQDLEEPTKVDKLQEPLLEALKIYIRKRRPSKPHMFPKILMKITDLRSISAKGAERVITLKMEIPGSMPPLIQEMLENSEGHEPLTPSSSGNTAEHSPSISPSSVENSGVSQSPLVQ

[2] = target: T2, Nuclear receptor subfamily 1 group I member 3 (Homo sapiens, UniProt Q14994); type: functional
T2 sequence (Q14994 whole entry): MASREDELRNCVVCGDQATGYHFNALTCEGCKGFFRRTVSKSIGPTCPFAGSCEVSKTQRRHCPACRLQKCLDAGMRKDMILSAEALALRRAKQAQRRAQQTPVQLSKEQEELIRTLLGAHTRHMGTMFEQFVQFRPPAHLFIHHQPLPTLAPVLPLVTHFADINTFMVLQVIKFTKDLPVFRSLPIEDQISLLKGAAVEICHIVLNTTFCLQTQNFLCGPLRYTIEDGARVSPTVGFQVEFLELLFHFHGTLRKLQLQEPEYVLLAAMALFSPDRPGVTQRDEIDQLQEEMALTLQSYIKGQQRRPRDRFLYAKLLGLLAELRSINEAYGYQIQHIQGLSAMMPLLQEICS

[3] = target: T3, Oxysterols receptor LXR-alpha (Homo sapiens, UniProt Q13133); type: functional
T3 sequence (Q13133 whole entry): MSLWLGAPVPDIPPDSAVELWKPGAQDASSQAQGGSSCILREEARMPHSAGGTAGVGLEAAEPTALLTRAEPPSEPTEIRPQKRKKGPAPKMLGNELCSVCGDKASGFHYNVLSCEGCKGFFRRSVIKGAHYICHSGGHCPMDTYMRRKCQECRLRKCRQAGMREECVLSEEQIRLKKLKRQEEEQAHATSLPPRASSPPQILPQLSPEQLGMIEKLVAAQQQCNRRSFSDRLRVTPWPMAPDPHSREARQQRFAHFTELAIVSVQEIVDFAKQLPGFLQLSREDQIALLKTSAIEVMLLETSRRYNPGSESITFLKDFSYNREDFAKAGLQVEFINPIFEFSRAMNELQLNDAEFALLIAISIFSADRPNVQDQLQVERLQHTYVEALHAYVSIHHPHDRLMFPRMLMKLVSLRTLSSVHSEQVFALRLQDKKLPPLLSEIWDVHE

[4] = target: T4, Type-1 angiotensin II receptor (Homo sapiens, UniProt P30556)
T4 sequence (P30556 whole entry): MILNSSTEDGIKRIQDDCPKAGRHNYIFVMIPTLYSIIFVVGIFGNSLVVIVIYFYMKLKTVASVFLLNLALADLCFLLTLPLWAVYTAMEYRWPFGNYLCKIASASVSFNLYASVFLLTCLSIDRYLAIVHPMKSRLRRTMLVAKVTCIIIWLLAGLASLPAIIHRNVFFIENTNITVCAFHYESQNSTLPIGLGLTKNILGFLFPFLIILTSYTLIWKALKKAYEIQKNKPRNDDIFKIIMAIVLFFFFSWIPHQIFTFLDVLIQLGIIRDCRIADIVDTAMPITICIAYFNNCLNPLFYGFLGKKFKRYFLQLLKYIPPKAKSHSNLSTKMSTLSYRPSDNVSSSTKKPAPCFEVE

[5] = target: T5, Adenosine receptor A3 (Homo sapiens, UniProt P0DMS8)
T5 sequence (P0DMS8 whole entry): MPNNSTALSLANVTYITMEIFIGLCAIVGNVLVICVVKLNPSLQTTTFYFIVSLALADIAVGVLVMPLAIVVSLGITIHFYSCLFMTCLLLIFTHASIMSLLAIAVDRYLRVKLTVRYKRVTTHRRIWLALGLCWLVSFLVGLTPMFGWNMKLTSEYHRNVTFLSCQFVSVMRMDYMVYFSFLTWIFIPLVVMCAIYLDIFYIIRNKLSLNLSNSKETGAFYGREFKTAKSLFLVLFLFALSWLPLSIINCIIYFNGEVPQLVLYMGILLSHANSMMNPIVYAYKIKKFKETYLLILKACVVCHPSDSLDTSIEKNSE

[6] = target: T6, Androgen receptor (Homo sapiens, UniProt P10275)
T6 sequence (P10275 whole entry): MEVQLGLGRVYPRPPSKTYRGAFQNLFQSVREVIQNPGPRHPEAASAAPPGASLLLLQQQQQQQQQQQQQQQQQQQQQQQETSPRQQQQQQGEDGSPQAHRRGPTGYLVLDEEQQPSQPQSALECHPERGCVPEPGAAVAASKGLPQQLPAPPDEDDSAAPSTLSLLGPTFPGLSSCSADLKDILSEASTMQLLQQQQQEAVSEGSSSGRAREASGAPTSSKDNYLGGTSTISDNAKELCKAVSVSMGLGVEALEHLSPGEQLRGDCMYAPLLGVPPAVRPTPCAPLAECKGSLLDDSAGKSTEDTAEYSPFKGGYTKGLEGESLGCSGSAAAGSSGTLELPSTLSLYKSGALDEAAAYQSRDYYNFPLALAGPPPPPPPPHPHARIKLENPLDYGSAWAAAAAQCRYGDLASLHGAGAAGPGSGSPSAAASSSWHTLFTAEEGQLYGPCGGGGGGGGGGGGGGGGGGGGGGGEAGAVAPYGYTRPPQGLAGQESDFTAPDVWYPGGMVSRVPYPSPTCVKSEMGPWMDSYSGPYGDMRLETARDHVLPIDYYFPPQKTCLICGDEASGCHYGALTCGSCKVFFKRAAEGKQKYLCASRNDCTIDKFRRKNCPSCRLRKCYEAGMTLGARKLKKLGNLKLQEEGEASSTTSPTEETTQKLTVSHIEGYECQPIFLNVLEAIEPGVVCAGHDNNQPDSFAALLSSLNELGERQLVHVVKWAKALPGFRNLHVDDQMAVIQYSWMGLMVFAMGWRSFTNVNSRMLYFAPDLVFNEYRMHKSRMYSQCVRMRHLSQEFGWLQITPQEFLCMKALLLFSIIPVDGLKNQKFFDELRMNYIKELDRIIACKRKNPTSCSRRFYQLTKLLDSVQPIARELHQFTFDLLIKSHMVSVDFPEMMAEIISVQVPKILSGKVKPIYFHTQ
Note: assay procedure not described here.

**Q.** CC(C)c1c(C(=O)Nc2ccccc2)c(-c2ccccc2)c(-c2ccc(F)cc2)n1CC[C@@H](O)C[C@@H](O)CC(=O)O [ATORVASTATIN] was tested. Which AC50 [1] did it give?
**A.** The AC50 was greater than 30 µM.

**Q.** And the AC50 [2]?
**A.** The AC50 was greater than 10 µM.

**Q.** And the AC50 [3]?
**A.** Its AC50 is greater than 30 µM.

**Q.** For Cc1c(O)c(=O)ccn1C [DEFERIPRONE], which AC50 [4] is on record?
**A.** The AC50 was greater than 100 µM.

**Q.** Nc1nc2ccc(OC(F)(F)F)cc2s1 [RILUZOLE] was tested. Which AC50 [5] did it give?
**A.** The AC50 was 29.2 µM.

**Q.** BIVALIRUDIN was tested. Which AC50 [6] did it give?
**A.** The AC50 was greater than 30 µM.
